The record followed here is patent US20230085307A1, “PYRIDAZINONE COMPOUND AND HERBICIDE” (NISSAN CHEMICAL CORPORATION, priority 2019, published 2023).

One assay relates to velvetleaf. Nature of the assay: Test Example 4: herbicidal effect by soil treatment (Table 19, symbol M). Format: in vivo, velvetleaf (Abutilon theophrasti). The conditions noted are these: amount of applied herbicide 320 g/ha. The essentials:
(§1)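 Pre-emergence style soil spray: seeds under ~1.5 cm sterilized diluvial soil received a uniform coat of emulsion diluted to the predetermined herbicide amount. Greenhouse 25–30° C; readout at week three on previously defined criteria.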
`Cc1nn(C)c(=O)c(-c2c(-c3cccc(OC(C)(C)C)c3)sc3ccc(F)cc23)c1O` [2-223]: the “herbicidal effect on M: velvetleaf” value is 1 (Herbicidal rate of 5% or more and less than 20%).
Still for that read-out and setting: as for `CCCC(=O)Oc1c(C)nn(C)c(=O)c1-c1c(-c2ccc(C(F)F)cc2)sc2ccc(F)cc12` [2-228], the figure is 3 (Herbicidal rate of 40% or more and less than 70%); as for `CCSc1ccc(-c2sc3ccc(F)cc3c2-c2c(O)c(C)nn(C)c2=O)cc1` [2-244], 2 (Herbicidal rate of 20% or more and less than 40%).

The subject of a further assay is lambsquarters. As to the kind of experiment: Test Example 5: herbicidal effect by foliage application, plastic box (Table 20, symbol O). Format: in vivo, lambsquarters (Chenopodium album). Particulars: foliage application, 320 g/ha, evaluated three weeks after application. The essentials:
(§2)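 Plants were sown into sterilized diluvial soil under about 1.5 cm cover and kept in a greenhouse at 25° C. to 30° C. Fourteen days on, foliage received an even spray of the diluted emulsion. Herbicidal or crop effect was judged three weeks afterwards.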
With `Cc1nn(C)c(=O)c(-c2c(-c3cccc(OC(C)(C)C)c3)sc3ccc(F)cc23)c1O` [2-223], the “herbicidal effect on O: lambsquarters (criteria 0-5)” value was 4 (Herbicidal rate of 70% or more and less than 90%).
Consider `CCCC(=O)Oc1c(C)nn(C)c(=O)c1-c1c(-c2ccc(C(F)F)cc2)sc2ccc(F)cc12` [2-228], for which the “herbicidal effect on O: lambsquarters (criteria 0-5)” value is recorded as 5 (Herbicidal rate of 90% or more (almost completely withered)).
Still for that read-out and setting: as for `CCSc1ccc(-c2sc3ccc(F)cc3c2-c2c(O)c(C)nn(C)c2=O)cc1` [2-244], the figure is 5 (Herbicidal rate of 90% or more (almost completely withered)).

In a further assay the test system is persian speedwell. Nature of the assay: Test Example 5: herbicidal effect by foliage application, plastic box (Table 20, symbol R). Format: in vivo, Persian speedwell (Veronica persica). Particulars: foliage application, 320 g/ha, evaluated three weeks after application. A digest of the protocol:
as §2
`Cc1nn(C)c(=O)c(-c2c(-c3cccc(OC(C)(C)C)c3)sc3ccc(F)cc23)c1O` [2-223]: the “herbicidal effect on R: persian speedwell (criteria 0-5)” value is reported as 5 (Herbicidal rate of 90% or more (almost completely withered)).
The same measure, in the same setting: as for `CCCC(=O)Oc1c(C)nn(C)c(=O)c1-c1c(-c2ccc(C(F)F)cc2)sc2ccc(F)cc12` [2-228], the figure is 5 (Herbicidal rate of 90% or more (almost completely withered)); as for `CCSc1ccc(-c2sc3ccc(F)cc3c2-c2c(O)c(C)nn(C)c2=O)cc1` [2-244], 5 (Herbicidal rate of 90% or more (almost completely withered)).

Another assay concerns green foxtail. As to the kind of experiment: Test Example 4: herbicidal effect by soil treatment (Table 19, symbol G). The assay is classed as in vivo, green foxtail (Setaria viridis). The conditions noted are these: amount of applied herbicide 320 g/ha. The essentials:
as §1
`Cc1nn(C)c(=O)c(-c2c(-c3cccc(OC(C)(C)C)c3)sc3ccc(F)cc23)c1O` [2-223]: the “herbicidal effect on G: green foxtail” value is 3 (Herbicidal rate of 40% or more and less than 70%).
On the same count and under the same terms, as for `CCCC(=O)Oc1c(C)nn(C)c(=O)c1-c1c(-c2ccc(C(F)F)cc2)sc2ccc(F)cc12` [2-228], the figure is 4 (Herbicidal rate of 70% or more and less than 90%).
Regarding `CCSc1ccc(-c2sc3ccc(F)cc3c2-c2c(O)c(C)nn(C)c2=O)cc1` [2-244], the “herbicidal effect on G: green foxtail” value is 5 (Herbicidal rate of 90% or more (almost completely withered)).

For the next assay, the system named is green foxtail. As to the kind of experiment: Test Example 5: herbicidal effect by foliage application, plastic box (Table 20, symbol G). Format: in vivo, green foxtail (Setaria viridis). The conditions noted are these: foliage application, 320 g/ha, evaluated three weeks after application. A digest of the protocol: as §2
In the case of `Cc1nn(C)c(=O)c(-c2c(-c3cccc(OC(C)(C)C)c3)sc3ccc(F)cc23)c1O` [2-223], the “herbicidal effect on G: green foxtail (criteria 0-5)” value was 1 (Herbicidal rate of 5% or more and less than 20%).
Same read-out and setting: the result for `CCCC(=O)Oc1c(C)nn(C)c(=O)c1-c1c(-c2ccc(C(F)F)cc2)sc2ccc(F)cc12` [2-228] reads 5 (Herbicidal rate of 90% or more (almost completely withered)); that for `CCSc1ccc(-c2sc3ccc(F)cc3c2-c2c(O)c(C)nn(C)c2=O)cc1` [2-244], 5 (Herbicidal rate of 90% or more (almost completely withered)).

Another assay has as its system blackgrass. As to the kind of experiment: Test Example 4: herbicidal effect by soil treatment (Table 19, symbol J). Format: in vivo, blackgrass (Alopecurus myosuroides). The conditions noted are these: amount of applied herbicide 320 g/ha. The essentials:
as §1
Turning to `Cc1nn(C)c(=O)c(-c2c(-c3cccc(OC(C)(C)C)c3)sc3ccc(F)cc23)c1O` [2-223], the “herbicidal effect on J: blackgrass” value is recorded as 0 (Herbicidal rate of 5% or less (almost no effect)).
The same measure, in the same setting: the result for `CCCC(=O)Oc1c(C)nn(C)c(=O)c1-c1c(-c2ccc(C(F)F)cc2)sc2ccc(F)cc12` [2-228] reads 0 (Herbicidal rate of 5% or less (almost no effect)); that for `CCSc1ccc(-c2sc3ccc(F)cc3c2-c2c(O)c(C)nn(C)c2=O)cc1` [2-244], 5 (Herbicidal rate of 90% or more (almost completely withered)).

The subject of the next assay is late watergrass. As to the kind of experiment: Test Example 2: herbicidal activity, application during weed generation under submerged conditions (Table 17, symbol A). Format: in vivo, late watergrass (Echinochloa oryzicola). The conditions noted are these: AAH 320 g/ha; application during weed generation, submerged conditions. The essentials:
(§3)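 Steps: fill Wagner pots with alluvial soil; add water to give 4 cm depth; sow the species mixed; grow under glass at 25–30° C.; at 1–2 leaves apply water-diluted emulsion formulation to the water surface at a fixed herbicide amount; score after 3 weeks.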
With `Cc1nn(C)c(=O)c(-c2c(-c3cccc(OC(C)(C)C)c3)sc3ccc(F)cc23)c1O` [2-223], the “herbicidal effect rating, A: late watergrass” value was 3 (Herbicidal rate of 40% or more and less than 70%).
Still for that read-out and setting: as for `CCCC(=O)Oc1c(C)nn(C)c(=O)c1-c1c(-c2ccc(C(F)F)cc2)sc2ccc(F)cc12` [2-228], the figure is 3 (Herbicidal rate of 40% or more and less than 70%); as for `CCSc1ccc(-c2sc3ccc(F)cc3c2-c2c(O)c(C)nn(C)c2=O)cc1` [2-244], 5 (Herbicidal rate of 90% or more (almost completely withered)).

A further assay has as its system barnyard grass. Nature of the assay: Test Example 4: herbicidal effect by soil treatment (Table 19, symbol H). Format: in vivo, barnyard grass (Echinochloa crus-galli). Particulars: amount of applied herbicide 320 g/ha. A digest of the protocol:
as §1
On to `Cc1nn(C)c(=O)c(-c2c(-c3cccc(OC(C)(C)C)c3)sc3ccc(F)cc23)c1O` [2-223], for which the “herbicidal effect on H: barnyard grass” value is 3 (Herbicidal rate of 40% or more and less than 70%).
The same measure, in the same setting: the result for `CCCC(=O)Oc1c(C)nn(C)c(=O)c1-c1c(-c2ccc(C(F)F)cc2)sc2ccc(F)cc12` [2-228] reads 5 (Herbicidal rate of 90% or more (almost completely withered)); that for `CCSc1ccc(-c2sc3ccc(F)cc3c2-c2c(O)c(C)nn(C)c2=O)cc1` [2-244], 4 (Herbicidal rate of 70% or more and less than 90%).

The test system of a further assay is Japanese bulrush. As to the kind of experiment: Test Example 2: herbicidal activity, application during weed generation under submerged conditions (Table 17, symbol B). The assay is classed as in vivo, Japanese bulrush (Schoenoplectus juncoides). The conditions noted are these: AAH 320 g/ha; application during weed generation, submerged conditions. A digest of the protocol:
as §3
Take `Cc1nn(C)c(=O)c(-c2c(-c3cccc(OC(C)(C)C)c3)sc3ccc(F)cc23)c1O` [2-223]: the “herbicidal effect rating, B: Japanese bulrush” value is 2 (Herbicidal rate of 20% or more and less than 40%).
Same read-out and setting: as for `CCCC(=O)Oc1c(C)nn(C)c(=O)c1-c1c(-c2ccc(C(F)F)cc2)sc2ccc(F)cc12` [2-228], the figure is 3 (Herbicidal rate of 40% or more and less than 70%).
The same measure, in the same setting: the result for `CCSc1ccc(-c2sc3ccc(F)cc3c2-c2c(O)c(C)nn(C)c2=O)cc1` [2-244] reads 3 (Herbicidal rate of 40% or more and less than 70%).

The test system of another assay is redroot pigweed. Nature of the assay: Test Example 4: herbicidal effect by soil treatment (Table 19, symbol N). Particulars: amount of applied herbicide 320 g/ha. Format: in vivo, redroot pigweed (Amaranthus retroflexus). A digest of the protocol:
as §1
Consider `Cc1nn(C)c(=O)c(-c2c(-c3cccc(OC(C)(C)C)c3)sc3ccc(F)cc23)c1O` [2-223], for which the “herbicidal effect on N: redroot pigweed” value is 3 (Herbicidal rate of 40% or more and less than 70%).
Take `CCCC(=O)Oc1c(C)nn(C)c(=O)c1-c1c(-c2ccc(C(F)F)cc2)sc2ccc(F)cc12` [2-228]: the “herbicidal effect on N: redroot pigweed” value was 4 (Herbicidal rate of 70% or more and less than 90%).
Still for that read-out and setting: the result for `CCSc1ccc(-c2sc3ccc(F)cc3c2-c2c(O)c(C)nn(C)c2=O)cc1` [2-244] reads 5 (Herbicidal rate of 90% or more (almost completely withered)).

The subject of a further assay is oval-leafed pondweed. As to the kind of experiment: Test Example 2: herbicidal activity, application during weed generation under submerged conditions (Table 17, symbol C). The assay is classed as in vivo, oval-leafed pondweed (Monochoria vaginalis). Particulars: AAH 320 g/ha; application during weed generation, submerged conditions. The essentials:
as §3
As for `Cc1nn(C)c(=O)c(-c2c(-c3cccc(OC(C)(C)C)c3)sc3ccc(F)cc23)c1O` [2-223], the “herbicidal effect rating, C: oval-leafed pondweed” value is 0 (Herbicidal rate of 5% or less (almost no effect)).
The same measure, in the same setting: the result for `CCCC(=O)Oc1c(C)nn(C)c(=O)c1-c1c(-c2ccc(C(F)F)cc2)sc2ccc(F)cc12` [2-228] reads 3 (Herbicidal rate of 40% or more and less than 70%); that for `CCSc1ccc(-c2sc3ccc(F)cc3c2-c2c(O)c(C)nn(C)c2=O)cc1` [2-244], 4 (Herbicidal rate of 70% or more and less than 90%).

A further assay relates to wild oat. Nature of the assay: Test Example 4: herbicidal effect by soil treatment (Table 19, symbol I). Particulars: amount of applied herbicide 320 g/ha. Format: in vivo, wild oat (Avena fatua). The essentials:
as §1
As to `Cc1nn(C)c(=O)c(-c2c(-c3cccc(OC(C)(C)C)c3)sc3ccc(F)cc23)c1O` [2-223], the “herbicidal effect on I: wild oat” value is on record as 0 (Herbicidal rate of 5% or less (almost no effect)).
As for `CCCC(=O)Oc1c(C)nn(C)c(=O)c1-c1c(-c2ccc(C(F)F)cc2)sc2ccc(F)cc12` [2-228], the “herbicidal effect on I: wild oat” value is recorded as 0 (Herbicidal rate of 5% or less (almost no effect)).
The same measure, in the same setting: as for `CCSc1ccc(-c2sc3ccc(F)cc3c2-c2c(O)c(C)nn(C)c2=O)cc1` [2-244], the figure is 0 (Herbicidal rate of 5% or less (almost no effect)).

The test system of the next assay is southern crabgrass. As to the kind of experiment: Test Example 4: herbicidal effect by soil treatment (Table 19, symbol F). Particulars: amount of applied herbicide 320 g/ha. The assay is classed as in vivo, southern crabgrass (Digitaria ciliaris). The essentials:
as §1
As for `Cc1nn(C)c(=O)c(-c2c(-c3cccc(OC(C)(C)C)c3)sc3ccc(F)cc23)c1O` [2-223], the “herbicidal effect on F: southern crabgrass” value is 4 (Herbicidal rate of 70% or more and less than 90%).
Still for that read-out and setting: the result for `CCCC(=O)Oc1c(C)nn(C)c(=O)c1-c1c(-c2ccc(C(F)F)cc2)sc2ccc(F)cc12` [2-228] reads 2 (Herbicidal rate of 20% or more and less than 40%); that for `CCSc1ccc(-c2sc3ccc(F)cc3c2-c2c(O)c(C)nn(C)c2=O)cc1` [2-244], 5 (Herbicidal rate of 90% or more (almost completely withered)).

The subject of the next assay is Italian ryegrass. Nature of the assay: Test Example 5: herbicidal effect by foliage application, plastic box (Table 20, symbol K). Format: in vivo, Italian ryegrass (Lolium multiflorum). The conditions noted are these: foliage application, 320 g/ha, evaluated three weeks after application. The essentials: as §2
On to `Cc1nn(C)c(=O)c(-c2c(-c3cccc(OC(C)(C)C)c3)sc3ccc(F)cc23)c1O` [2-223], for which the “herbicidal effect on K: Italian ryegrass (criteria 0-5)” value (from here on “herbicidal effect on K”) was 1 (Herbicidal rate of 5% or more and less than 20%).
Regarding `CCCC(=O)Oc1c(C)nn(C)c(=O)c1-c1c(-c2ccc(C(F)F)cc2)sc2ccc(F)cc12` [2-228], the “herbicidal effect on K” value was 3 (Herbicidal rate of 40% or more and less than 70%).
For `CCSc1ccc(-c2sc3ccc(F)cc3c2-c2c(O)c(C)nn(C)c2=O)cc1` [2-244], the “herbicidal effect on K” value was 5 (Herbicidal rate of 90% or more (almost completely withered)).
